# From the Kinase Knowledgebase extract (Sharma et al. 2016)
# Target: MAPK14 (human) (UniProt Q16539)
# Assay: Enzyme Assay
# Chain of MAPK14 (human) (Q16539 whole entry, looked up): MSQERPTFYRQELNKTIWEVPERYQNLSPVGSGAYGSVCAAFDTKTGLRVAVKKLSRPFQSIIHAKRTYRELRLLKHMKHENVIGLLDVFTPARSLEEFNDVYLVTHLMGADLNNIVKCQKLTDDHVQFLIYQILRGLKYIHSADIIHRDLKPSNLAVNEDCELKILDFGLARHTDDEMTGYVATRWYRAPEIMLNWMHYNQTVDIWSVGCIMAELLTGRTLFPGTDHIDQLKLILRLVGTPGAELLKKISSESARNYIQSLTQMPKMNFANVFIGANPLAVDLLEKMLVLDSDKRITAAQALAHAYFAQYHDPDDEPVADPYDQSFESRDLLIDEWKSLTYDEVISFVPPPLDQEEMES
row,Compound,IC50
1,C[C@H]1CCCCN1c1nnc2ccc(O[C@@H]3CC[C@H](NC(=O)Nc4cc(C(C)(C)C)nn4-c4ccc(CN5CCCC5)cc4)c4ccccc43)cn12,< 10 nM
2,C[C@H]1CCCCN1c1nnc2ccc(O[C@@H]3CC[C@H](NC(=O)Nc4cc(C(C)(C)C)nn4-c4cccc(CCN5CCCN(C)CC5)c4)c4ccccc43)cn12,< 10 nM
3,CN1CCC[C@H]1c1nnc2ccc(O[C@H]3C[C@H](NC(=O)Nc4cc(C(C)(C)C)nn4-c4ccc(CO)cc4)c4ccccc43)cn12,< 10 nM
4,Cc1ccc(-n2nc(C(C)(C)C)cc2NC(=O)N[C@H]2CC[C@@H](Oc3ccc4nnc([C@]5(C)CCCN5C)n4c3)c3ccccc32)cc1,< 10 nM
5,C[C@H]1CCCCN1c1nnc2ccc(O[C@@H]3CC[C@H](NC(=O)Nc4cc(C(C)(C)C)nn4-c4ccc(CN5CCOCC5)cc4)c4ccccc43)cn12,< 10 nM
6,Cc1ccc(-n2nc(C(C)(C)C)cc2NC(=O)N[C@H]2CC[C@@H](Oc3ccc4nnc([C@H]5COCCN5C)n4c3)c3ccccc32)cc1,< 10 nM
7,Cc1ccc(-n2nc(C(C)(C)C)cc2NC(=O)N[C@H]2CC[C@@H](Oc3ccc4nnc([C@@H]5C[C@@H](F)CN5C)n4c3)c3ccccc32)cc1,< 10 nM
8,Cc1ccc(-n2nc(C(C)(C)C)cc2NC(=O)N[C@H]2CC[C@H](Oc3ccc4nnc([C@@H]5CCCN5C)n4c3)c3ccccc32)cc1,< 10 nM
9,C[C@H]1CCCCN1c1nnc2ccc(O[C@@H]3CC[C@H](NC(=O)Nc4cc(C(C)(C)C)nn4-c4cccc(OCCN5CCN(C)CC5)c4)c4ccccc43)cn12,< 10 nM
10,C[C@H]1CCCCN1c1nnc2ccc(O[C@@H]3CC[C@H](NC(=O)Nc4cc(C(C)(C)C)nn4-c4cccc(CCN5CCCOCC5)c4)c4ccccc43)cn12,< 10 nM
11,Cc1ccc(-n2nc(C(C)(C)C)cc2NC(=O)N[C@H]2CC[C@@H](Oc3ccc4nnc(CN5CCN(C)C(CO)C5)n4c3)c3ccccc32)cc1 (stereo partly drawn),< 10 nM
12,Cc1ccc(-n2nc(C(C)(C)C)cc2NC(=O)N[C@H]2CC[C@@H](Oc3ccc4nnc(NC(C)C)n4c3)c3ccccc32)cc1,< 10 nM
13,Cc1ccc(-n2nc(C(C)(C)C)cc2NC(=O)N[C@H]2CC[C@@H](Oc3ccc4nnc(CCN5CCCC5)n4c3)c3ccccc32)cc1,< 10 nM
14,Cc1ccc(-n2nc(C(C)(C)C)cc2NC(=O)N[C@H]2CC[C@@H](Oc3ccc4nnc(N5CC[C@H](O)C5)n4c3)c3ccccc32)cc1,< 10 nM
15,C[C@@H]1CCC[C@H](C)N1c1nnc2ccc(O[C@@H]3CC[C@H](NC(=O)Nc4cc(C(C)(C)C)nn4-c4cccc(OCCN(C)C)c4)c4ccccc43)cn12,< 10 nM
16,CC(C)N(c1nnc2ccc(O[C@@H]3CC[C@H](NC(=O)Nc4cc(C(C)(C)C)nn4-c4cccc(OCCN(C)C)c4)c4ccccc43)cn12)C(C)C,< 10 nM
17,Cc1ccc(-n2nc(C(C)(C)C)cc2NC(=O)N[C@H]2CC[C@@H](Oc3ccc4nnc([C@@H]5CCCN5C)n4c3)c3ccccc32)cc1,< 10 nM
18,Cc1ccc(-n2nc(C(C)(C)C)cc2NC(=O)N[C@H]2CC[C@@H](Oc3ccc4nnc([C@@H]5CCCN5C(C)C)n4c3)c3ccccc32)cc1,< 10 nM
19,C[C@H]1CCCCN1c1nnc2ccc(O[C@@H]3CC[C@H](NC(=O)Nc4cc(C(C)(C)C)nn4CCN4CCN(C)CC4)c4ccccc43)cn12,< 10 nM
20,C[C@H]1COCCN1c1nnc2ccc(O[C@@H]3CC[C@H](NC(=O)Nc4cc(C(C)(C)C)nn4CCO)c4ccccc43)cn12,< 10 nM
21,CC(C)(C)c1cc(NC(=O)N[C@H]2CC[C@@H](Oc3ccc4nnc(N5CCCCC5)n4c3)c3ccccc32)n(-c2ccc(O)cc2)n1,< 10 nM

row,Compound,IC50
1,C[C@H]1CCCCN1c1nnc2ccc(O[C@@H]3CC[C@H](NC(=O)Nc4cc(C(C)(C)C)nn4-c4cccc(OCCN5CCCN(C)CC5)c4)c4ccccc43)cn12,< 10 nM
2,Cc1ccc(-n2nc(C(C)(C)C)cc2NC(=O)N[C@H]2CC[C@@H](Oc3ccc4nnc(CN5CCNCC5)n4c3)c3ccccc32)cc1,< 10 nM
3,Cc1ccc(-n2nc(C(C)(C)C)cc2NC(=O)N[C@H]2CC[C@@H](Oc3ccc4nnc([C@@H]5CCN(C)C5)n4c3)c3ccccc32)cc1,< 10 nM
4,CN1CCC[C@H]1c1nnc2ccc(O[C@@H]3CC[C@H](NC(=O)Nc4cc(C(C)(C)C)nn4-c4ccc(CO)cc4)c4ccccc43)cn12,< 10 nM
5,C[C@H]1CCCCN1c1nnc2ccc(O[C@@H]3CC[C@H](NC(=O)Nc4cc(C(C)(C)C)nn4-c4cccc(CCN5CCCC5)c4)c4ccccc43)cn12,< 10 nM
6,C[C@H]1CCCCN1c1nnc2ccc(O[C@@H]3CC[C@H](NC(=O)Nc4cc(C(C)(C)C)nn4-c4cccc(OCCN5CCCC5)c4)c4ccccc43)cn12,< 10 nM
7,C[C@H]1CCCCN1c1nnc2ccc(O[C@@H]3CC[C@H](NC(=O)Nc4cc(C(C)(C)C)nn4CCN4CCOCC4)c4ccccc43)cn12,< 10 nM
8,Cc1ccc(-n2nc(C(C)(C)C)cc2NC(=O)N[C@H]2CC[C@@H](Oc3ccc4nnc(N5CCC(O)CC5)n4c3)c3ccccc32)cc1,< 10 nM
9,Cc1ccc(-n2nc(C(C)(C)C)cc2NC(=O)N[C@H]2CC[C@@H](Oc3ccc4nnc(N(C)CCN(C)C)n4c3)c3ccccc32)cc1,< 10 nM
10,Cc1ccc(-n2nc(C(C)(C)C)cc2NC(=O)N[C@H]2CC[C@@H](Oc3ccc4nnc(N5CCCCC5)n4c3)c3ccccc32)cn1,< 10 nM
11,Cc1ccc(-n2nc(C(C)(C)C)cc2NC(=O)N[C@H]2CC[C@@H](Oc3ccc4nnc(C5(N(C)C)CCCC5)n4c3)c3ccccc32)cc1,< 10 nM
12,Cc1ccc(-n2nc(C(C)(C)C)cc2NC(=O)N[C@H]2CC[C@@H](Oc3ccc4nnc(N5CCC(CO)CC5)n4c3)c3ccccc32)cc1,< 10 nM
13,C[C@H]1CCCCN1c1nnc2ccc(O[C@@H]3CC[C@H](NC(=O)Nc4cc(C(C)(C)C)nn4CCN(C)C)c4ccccc43)cn12,< 10 nM
14,Cc1ccc(-n2nc(C(C)(C)C)cc2NC(=O)N[C@H]2CC[C@@H](Oc3ccc4nnc(N5CCN(C)CC5)n4c3)c3ccccc32)cc1,< 10 nM
15,COC1CCN(Cc2cccc(-n3nc(C(C)(C)C)cc3NC(=O)N[C@H]3CC[C@@H](Oc4ccc5nnc(N6CCCC[C@@H]6C)n5c4)c4ccccc43)c2)CC1,< 10 nM
16,COCC(=O)Nc1cc(O[C@@H]2CC[C@H](NC(=O)Nc3cc(C(C)(C)C)nn3-c3ccc(C)cc3)c3ccccc32)ccn1,< 10 nM
17,CC(C)(C)c1cc(NC(=O)N[C@H]2CC[C@@H](Oc3ccc4nnc(N5CCCCC5)n4c3)c3ccccc32)n(-c2cnn(CCCN3CCOCC3)c2)n1,< 10 nM
18,Cc1ccc(-n2nc(C(C)(C)C)cc2NC(=O)N[C@H]2CC[C@@H](Oc3ccc4nnc(N5CCC[C@H](CO)C5)n4c3)c3ccccc32)cc1,< 10 nM
19,Cc1ccc(-n2nc(C(C)(C)C)cc2NC(=O)N[C@H]2CC[C@@H](Oc3ccc4nnc(N5CCCCC5)n4c3)c3ccccc32)cc1,< 10 nM
20,Cc1ccc(-n2nc(C(C)(C)C)cc2NC(=O)N[C@H]2CC[C@@H](Oc3ccc4nnc(N(C)CCN5CCOCC5)n4c3)c3ccccc32)cc1,< 10 nM
21,C[C@H]1CCCCN1c1nnc2ccc(O[C@@H]3CC[C@H](NC(=O)Nc4cc(C(C)(C)C)nn4-c4cccc(CN5CCOCC5)c4)c4ccccc43)cn12,< 10 nM

row,Compound,IC50
1,Cc1ccc(-n2nc(C(C)(C)C)cc2NC(=O)N[C@H]2CC[C@H](Oc3ccc4nnc(N5CCCCC5)n4c3)c3ccccc32)cc1,< 10 nM
2,Cc1ccc(-n2nc(C(C)(C)C)cc2NC(=O)N[C@H]2CC[C@@H](Oc3ccc4nnc([C@@H]5CCCN5CCCO)n4c3)c3ccccc32)cc1,< 10 nM
3,Cc1ccc(-n2nc(C(C)(C)C)cc2NC(=O)N[C@H]2CC[C@@H](Oc3cc(C)c4nnc([C@@H]5CCCN5C)n4c3)c3ccccc32)cc1,< 10 nM
4,Cc1ccc(-n2nc(C(C)(C)C)cc2NC(=O)N[C@H]2CC[C@@H](Oc3ccc4cnn(CCO)c4c3)c3ccccc32)cc1,< 10 nM
5,C[C@H]1CCCCN1c1nnc2ccc(O[C@@H]3CC[C@H](NC(=O)Nc4cc(C(C)(C)C)nn4CCN4CCCCC4)c4ccccc43)cn12,< 10 nM
6,Cc1ccc(-n2nc(C(C)(C)C)cc2NC(=O)N[C@H]2CC[C@@H](Oc3ccc4nnc(N5CCCCCC5)n4c3)c3ccccc32)cc1,< 10 nM
7,Cc1ccc(-n2nc(C(C)(C)C)cc2NC(=O)N[C@H]2CC[C@@H](Oc3ccc4nnc(N5CCCC5)n4c3)c3ccccc32)cc1,< 10 nM
8,CCN(C)CCOc1cccc(-n2nc(C(C)(C)C)cc2NC(=O)N[C@H]2CC[C@@H](Oc3ccc4nnc(N5CCCC[C@@H]5C)n4c3)c3ccccc32)c1,< 10 nM
9,CN(C)CCCn1cc(-n2nc(C(C)(C)C)cc2NC(=O)N[C@H]2CC[C@@H](Oc3ccc4nnc(N5CCCCC5)n4c3)c3ccccc32)cn1,< 10 nM
10,CN1CCCC[C@H]1c1nnc2ccc(O[C@@H]3CC[C@H](NC(=O)Nc4cc(C(C)(C)C)nn4CCO)c4ccccc43)cn12,< 10 nM
11,CN(C)CCn1cnc(-n2nc(C(C)(C)C)cc2NC(=O)N[C@H]2CC[C@@H](Oc3ccc4nnc(N5CCCCC5)n4c3)c3ccccc32)c1,< 10 nM
12,CC(C)(C)c1cc(NC(=O)N[C@H]2CC[C@@H](Oc3ccc4nnc(N5CCCCC5)n4c3)c3ccccc32)n(-c2cccc(OCCO)c2)n1,< 10 nM
13,COCCN(C)Cc1ccc(-n2nc(C(C)(C)C)cc2NC(=O)N[C@H]2CC[C@@H](Oc3ccc4nnc(N5CCCC[C@@H]5C)n4c3)c3ccccc32)cc1,< 10 nM
14,Cc1ccc(-n2nc(C(C)(C)C)cc2NC(=O)N[C@H]2CC[C@@H](Oc3ccc4nnc(-c5ccccc5CN5CCOCC5)n4c3)c3ccccc32)cc1,< 10 nM
15,Cc1ccc(-n2nc(C(C)(C)C)cc2NC(=O)N[C@H]2CC[C@@H](Oc3ccc4nnc([C@@H]5CCCCN5C)n4c3)c3ccccc32)cc1,< 10 nM
16,C[C@H]1CCCCN1c1nnc2ccc(O[C@@H]3CC[C@H](NC(=O)Nc4cc(C(C)(C)C)nn4-c4cccc(CCN5CCN(C)CC5)c4)c4ccccc43)cn12,< 10 nM
17,Cc1ccc(-n2nc(C(C)(C)C)cc2NC(=O)N[C@H]2CC[C@@H](Oc3ccc(C#N)nc3)c3ccccc32)cc1,< 10 nM
18,C[C@@H]1CCC[C@H](C)N1c1nnc2ccc(O[C@@H]3CC[C@H](NC(=O)Nc4cc(C(C)(C)C)nn4-c4cnn(CCN5CCOCC5)c4)c4ccccc43)cn12,< 10 nM
19,C[C@H]1CCCCN1c1nnc2ccc(O[C@@H]3CC[C@H](NC(=O)Nc4cc(C(C)(C)C)nn4-c4cccc(CN5CCC(F)CC5)c4)c4ccccc43)cn12,< 10 nM
20,C[C@H]1CCCCN1c1nnc2ccc(O[C@@H]3CC[C@H](NC(=O)Nc4cc(C(C)(C)C)nn4-c4cccc(OCCN5C6CCCC5CC6)c4)c4ccccc43)cn12,< 10 nM
21,Cc1ccc(-n2nc(C(C)(C)C)cc2NC(=O)N[C@H]2CC[C@@H](Oc3ccc4nnc(N5CC[C@H](CO)C5)n4c3)c3ccccc32)cc1,< 10 nM
